Source: patent US20240166652A1, “MODULATORS OF THE INTEGRATED STRESS PATHWAY” (Calico Life Sciences LLC, priority 2017, published 2024)

Test system: ATF4 luciferase reporter in HEK293T cells
Test: ATF4-Luc assay (ATF4 luciferase reporter, tunicamycin-treated HEK293T cells)
Type: cell-based, human
Details: Homo sapiens, HEK-293T; HEK293T cells carrying the ATF4 luciferase reporter, 1 μg/mL tunicamycin, 7 hours

Row | SMILES | EC50
1 | O=C(COc1cncc(C(F)(F)F)c1)NC12CC(NC(=O)COc3ccc4c(c3)OC(F)(F)O4)(C1)C2 [Compound 269, 2-[(2,2-difluoro-2H-1,3-benzodioxol-5-yl)oxy]-N-[3-(2-{[5-(trifluoromethyl)pyridin-3-yl]oxy}acetamido)bicyclo[1.1.1]pentan-1-yl]acetamide] | 0.01 to 0.05 µM
2 | N#Cc1cc(OCC(=O)NC23CC(NC(=O)COc4ccc5c(c4)OC(F)(F)O5)(C2)C3)ccn1 [Compound 270, 2-[(2-cyanopyridin-4-yl)oxy]-N-(3-{2-[(2,2-difluoro-2H-1,3-benzodioxol-5-yl)oxy]acetamido}bicyclo[1.1.1]pentan-1-yl)acetamide] | 0.25 to 0.5 µM
3 | COc1ccc(OCC(=O)NC23CC(NC(=O)COc4ccc5c(c4)OC(F)(F)O5)(C2)C3)cn1 [Compound 271, 2-[(2,2-difluoro-2H-1,3-benzodioxol-5-yl)oxy]-N-(3-{2-[(6-methoxypyridin-3-yl)oxy]acetamido}bicyclo[1.1.1]pentan-1-yl)acetamide] | 0.01 to 0.05 µM
4 | O=C(COc1ccc(Cl)c(F)c1)NC12CCC(NC(=O)COc3ccc(Cl)c(F)c3)(CC1)C(=O)C2 [Compound 272, N,N′-(2-oxobicyclo[2.2.2]octane-1,4-diyl)bis[2-(4-chloro-3-fluorophenoxy)acetamide]] | < 0.01 µM
5 | O=C(COc1ccc(Cl)c(F)c1)NC12CCC(NC(=O)COc3ccc(Cl)c(F)c3)(CC1)C(O)C2 (centres unmarked) [Compound 273, N,N′-(2-hydroxybicyclo[2.2.2]octane-1,4-diyl)bis[2-(4-chloro-3-fluorophenoxy)acetamide]] | < 0.01 µM
6 | O=C(COc1ccc2c(c1)OC(F)(F)O2)NC12CC(NC(=O)COc3ccc4c(c3)OC(F)(F)O4)(C1)C2 [Compound 274, N,N′-(bicyclo[1.1.1]pentane-1,3-diyl)bis{2-[(2,2-difluoro-2H-1,3-benzodioxol-5-yl)oxy]acetamide}] | < 0.01 µM
7 | COC(=O)c1cc(OCC(=O)NC23CC(NC(=O)COc4ccc5c(c4)OC(F)(F)O5)(C2)C3)ccc1Cl [Compound 275, methyl 2-chloro-5-{2-1(3-{2-[(2,2-difluoro-2H-1,3-benzodioxol-5-yl)oxy]acetamido}bicyclo[1.1.1]pentan-1-yl)aminol-2-oxoethoxy}benzoate] | 0.5 to 2 µM
8 | O=C(COc1ccc(Cl)c(CO)c1)NC12CC(NC(=O)COc3ccc4c(c3)OC(F)(F)O4)(C1)C2 [Compound 276, 2-[4-chloro-3-(hydroxymethyl)phenoxy]-N-(3-{2-[(2,2-difluoro-2H-1,3-benzodioxol-5-yl)oxy]acetamido}bicyclo[1.1.1]pentan-1-yl)acetamide] | 0.01 to 0.05 µM
9 | N#Cc1cc(OCC(=O)NC23CC(NC(=O)COc4ccc(Cl)c(F)c4)(C2)C3)ccn1 [Compound 277, 2-(4-chloro-3-fluorophenoxy)-N-(3-{2-[(2-cyanopyridin-4-yl)oxy]acetamido}bicyclo[1.1.1]pentan-1-yl)acetamide] | 0.25 to 0.5 µM
10 | O=C(COc1ccc(S(F)(F)(F)(F)F)cc1)NC12CC(NC(=O)COc3ccc4c(c3)OC(F)(F)O4)(C1)C2 [Compound 278, 2-[(2,2-difluoro-2H-1,3-benzodioxol-5-yl)oxy]-N-(3-{2-[4-(pentafluoro-λ^6-sulfanyl)phenoxy]acetamido}bicyclo[1.1.1]pentan-1-yl)acetamide] | 0.01 to 0.05 µM
11 | O=C(COCc1ccc(OC(F)F)nc1)NC12CC(NC(=O)COc3ccc(Cl)c(F)c3)(C1)C2 [Compound 279, 2-(4-chloro-3-fluorophenoxy)-N-[3-(2-{[6-(difluoromethoxy)pyridin-3-yl]methoxy}acetamido)bicyclo[1.1.1]pentan-1-yl]acetamide] | 0.25 to 0.5 µM
12 | O=C(COCc1ccc(-n2cccn2)nc1)NC12CC(NC(=O)COc3ccc(Cl)c(F)c3)(C1)C2 [Compound 280, 2-(4-chloro-3-fluorophenoxy)-N-[3-(2-{[6-(1H-pyrazol-1-yl)pyridin-3-yl]methoxy}acetamido)bicyclo[1.1.1]pentan-1-yl]acetamide] | > 2 µM
13 | COc1ccc(COCC(=O)NC23CC(NC(=O)COc4ccc(Cl)c(F)c4)(C2)C3)cn1 [Compound 281, 2-(4-chloro-3-fluorophenoxy)-N-(3-{2-[(6-methoxypyridin-3-yl)methoxy]acetamido}bicyclo[1.1.1]pentan-1-yl)acetamide] | 0.5 to 2 µM
14 | Cc1cc(COCC(=O)NC23CC(NC(=O)COc4ccc(Cl)c(F)c4)(C2)C3)cc(C)n1 [Compound 282, 2-(4-chloro-3-fluorophenoxy)-N-(3-{2-[(2,6-dimethylpyridin-4-yl)methoxy]acetamido}bicyclo[1.1.1]pentan-1-yl)acetamide] | > 2 µM
15 | N#Cc1ccc(COCC(=O)NC23CC(NC(=O)COc4ccc(Cl)c(F)c4)(C2)C3)cn1 [Compound 283, 2-(4-chloro-3-fluorophenoxy)-N-(3-{2-[(6-cyanopyridin-3-yl)methoxy]acetamido}bicyclo[1.1.1]pentan-1-yl)acetamide] | 0.5 to 2 µM
16 | O=C(COCc1ccc(C(F)(F)F)nc1)NC12CC(NC(=O)COc3ccc(Cl)c(F)c3)(C1)C2 [Compound 284, 2-(4-chloro-3-fluorophenoxy)-N-[3-(2-{[6-(trifluoromethyl)pyridin-3-yl]methoxy}acetamido)bicyclo[1.1.1]pentan-1-yl]acetamide] | 0.01 to 0.05 µM
17 | O=C(COc1ccc(Cl)c(Cl)c1)NC12CC(NC(=O)COc3cnc(C4CC4)cn3)(C1)C2 [Compound 285, 2-[(5-cyclopropylpyrazin-2-yl)oxy]-N-{3-[2-(3,4-dichlorophenoxy)acetamido]-bicyclo[1.1.1]pentan-1-yl}acetamide] | 0.05 to 0.25 µM
18 | O=C(COc1ccc(Cl)c(F)c1)NC12CC(NCC(=O)c3ccc(Cl)c(Cl)c3)(C1)C2 [Compound 286, 2-(4-chloro-3-fluorophenoxy)-N-(3-{[2-(3,4-dichlorophenyl)-2-oxoethyl]amino}bicyclo[1.1.1]pentan-1-yl)acetamide] | 0.05 to 0.25 µM
19 | O=C(COc1ccc(Cl)c(Cl)c1)NC12CC(NCC(=O)c3ccc(Cl)cc3)(C1)C2 [Compound 287, N-(3-{[2-(4-chlorophenyl)-2-oxoethyl]amino}bicyclo[1.1.1]pentan-1-yl)-2-(3,4-dichlorophenoxy)acetamide] | 0.05 to 0.25 µM
20 | O=C(COc1ccc(Cl)c(Cl)c1)NC12CC(NCC(O)c3ccc(Cl)cc3)(C1)C2 (centres unmarked) [Compound 288, N-(3-{[2-(4-chlorophenyl)-2-hydroxyethyl]amino}bicyclo[1.1.1]pentan-1-yl)-2-(3,4-dichlorophenoxy)acetamide] | 0.05 to 0.25 µM
21 | O=C(COc1ccc(Cl)c(F)c1)NC12CC(NCC(=O)c3ccc(Cl)cc3)(C1)C2 [Compound 289, 2-(4-chloro-3-fluorophenoxy)-N-(3-{[2-(4-chlorophenyl)-2-oxoethyl]amino}bicyclo[1.1.1]pentan-1-yl)acetamide] | 0.05 to 0.25 µM
22 | O=C(COc1ccc(Cl)c(F)c1)NC12CC(NCC(O)c3ccc(Cl)cc3)(C1)C2 (centres unmarked) [Compound 290, 2-(4-chloro-3-fluorophenoxy)-N-(3-{[2-(4-chlorophenyl)-2-hydroxyethyl]amino}bicyclo[1.1.1]pentan-1-yl)acetamide] | 0.5 to 2 µM
23 | O=C(COc1ccc(Cl)c(F)c1)NC12CC(NCC(=O)c3ccc(Cl)c(F)c3)(C1)C2 [Compound 291, 2-(4-chloro-3-fluorophenoxy)-N-(3-{[2-(4-chloro-3-fluorophenyl)-2-oxoethyl]amino}bicyclo[1.1.1]pentan-1-yl)acetamide] | 0.25 to 0.5 µM
